Reference: US20090088461A1, “Methods of Treating or Preventing Cardiac Disease Associated With a High Fat Diet” (Synvista Therapeutics, Inc., priority 2007, published 2009)
Values joined by “and” are separate entries in the source; they are usually repeats but may differ in a detail not shown here. Identical values can stand only once.

Experiments:
[1] = target: T1, AGE-BSA previously crosslinked to the collagen (Bos taurus, UniProt P02769); test: Cross-Link Breaking Assay (sandwich enzyme immunoassay); type: biochemical; settings: for Breaking Anti-AGE: anti-AGE antibody; for Breaking Anti-BSA: anti-BSA antibody
T1 construct: Bovine Serum Albumin (Type V), (BSA) Calbiochem; purchased Calbiochem (BSA Type V); Collaborative Biomedical Products (Biocoat collagen plates)
Protocol: The present invention also involves a novel sandwich enzyme immunoassay used to ascertain the ability of test compounds to “break” or reverse already formed advanced glycosylation endproducts by detecting the breaking of AGE (Advanced glycosylation endproduct) moieties from AGE-crosslinked protein. This assay comprises:
a) incubation of AGE-modified bovine serum albumin (AGE BSA) on collagen-coated wells of microtiter plates for a period of 2-6 hours' at a temperature of 37° C.
b) washing of the wells with PBS-Tween;
c) application of the test compounds to the washed wells of step b;
d) incubation of the test compounds applied to the washed wells for an additional 12-24 hours at a temperature of about 37° C.; and
e) detection of the AGE-breaking using an antibody raised against AGE-ribonuclease or cross-link breaking with an antibody against BSA.
In order to ascertain the ability of the compounds of the instant invention to “break” or reverse already formed advanced glycosylation endproducts, a novel sandwich enzyme immunoassay was developed which detects breaking of AGE (Advanced glycosylation endproduct) moieties from AGE-crosslinked protein. The assay utilizes collagen-coated 96 well microtiter plates that are obtained commercially. […] Following an incubation period of 16 hours (37° C.) cross-link-breaking is detected using an antibody raised against AGE-ribonuclease or with an antibody against BSA. […] Details of the assay are as follows:
1. AGE-BSA stock solutions were prepared as follows. Sodium phosphate buffer (0.4 M) was prepared by dissolving 6 grams of monobasic sodium phosphate in 100 ml of distilled water, 7 grams of dibasic sodium phosphate (0.4 M) in 100 ml of distilled water and adjusting the pH of the dibasic solution to 7.4 with the monobasic solution. Sodium azide (0.02 grams) was added per 100 ml volume to inhibit bacterial growth. The BSA solution was prepared as follows: 400 mg of Type V BSA (bovine serum albumin) was added for each ml of sodium phosphate buffer (above). A 400 mM glucose solution was prepared by dissolving 7.2 grams of dextrose in 100 ml of sodium phosphate buffer (above). The BSA and glucose solutions were mixed 1:1 and incubated at 37° C. for 12 weeks. The pH of the incubation mixture was monitored weekly and adjusted to pH 7.4 if necessary. After 12 weeks, the AGE-BSA solution was dialyzed against PBS for 48 hours with four buffer changes, each at a 1:500 ratio of solution to dialysis buffer. Protein concentration was determined by the micro-Lowry method. The AGE-BSA stock solution was aliquoted and stored at −20° C.
2. Working solutions for crosslinking and breaking studies were prepared as follows. Test compounds were dissolved in PBS and the pH was adjusted to pH 7.4 if necessary. AGE-BSA stock solution was diluted in PBS to measure maximum crosslinking and in the inhibitor solution for testing inhibitory activity of compounds. The concentration of AGE-BSA necessary to achieve the optimum sensitivity was determined by initial titration of each lot of AGE-BSA.
3. Wash buffer (“PBS-Tween”) was, prepared as follows. PBS was prepared by dissolving the following salts in one liter of distilled water: NaCl, 8 grams; KCl, 0.2 gram, KH2PO4. […] Tween-20 was added to a final concentration of 0.05% (vol/vol).
4. Substrates for detection of secondary antibody binding were prepared by diluting the HRP substrate buffer 1:10 in distilled water and mixing with ABTS chromogen 1:50 just prior to use.
1. Biocoat plates were blocked with 300 μl of “Superbloc”. Plates were blocked for one hour at room temperature and were washed with PBS-Tween three times with the Dynatech platewasher before addition of test reagents.
2. Each experiment was set up in the following manner. The first three wells of the Biocoat plate were used for the reagent blank. Fifty microliters of solutions AGE-BSA were added to test wells in triplicate and only PBS in blank wells.

[2] = target: cross-linking of glycated bovine serum albumin (AGE-BSA) to the rat tail tendon collagen-coated 96-well plate (Bos taurus, UniProt P02769); test: Cross-Linking Inhibition Assay; settings: for inhibition at 10000 µM: read-out: Relative Cross-link Inhibition (at 10 mM)
cross-linking of glycated bovine serum albumin (AGE-BSA) to the rat tail tendon collagen-coated 96-well plate, sequence (P02769 25-607): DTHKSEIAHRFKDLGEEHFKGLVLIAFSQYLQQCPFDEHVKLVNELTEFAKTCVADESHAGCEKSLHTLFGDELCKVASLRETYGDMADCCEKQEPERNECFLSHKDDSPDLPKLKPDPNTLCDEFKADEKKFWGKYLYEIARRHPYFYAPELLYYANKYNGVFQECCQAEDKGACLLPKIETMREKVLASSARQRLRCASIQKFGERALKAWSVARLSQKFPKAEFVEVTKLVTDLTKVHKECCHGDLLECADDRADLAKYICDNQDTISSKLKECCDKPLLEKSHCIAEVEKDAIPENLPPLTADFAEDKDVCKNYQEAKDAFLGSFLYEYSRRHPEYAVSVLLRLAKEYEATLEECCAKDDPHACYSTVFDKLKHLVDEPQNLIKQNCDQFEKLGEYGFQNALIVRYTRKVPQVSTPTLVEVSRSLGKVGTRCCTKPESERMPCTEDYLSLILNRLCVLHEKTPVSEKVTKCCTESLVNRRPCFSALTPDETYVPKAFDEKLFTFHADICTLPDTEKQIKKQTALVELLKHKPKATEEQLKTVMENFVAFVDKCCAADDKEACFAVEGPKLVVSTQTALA
Protocol: The following method was used to evaluate the ability of the compounds of the present invention to inhibit the cross-linking of glycated bovine serum albumin (AGE-BSA) to the rat tail tendon collagen-coated 96-well plate.
The blocking solution was removed from the wells by, washing the plate twice with PBS-'Tween 20 solution (0.05% Tween 20) using a NUNq-multiprobe or Dynatech ELISA-plate washer. Cross-linking of AGE-BSA (1 to 10 mg per well depending on the batch of AGE-BSA) to rat tail tendon collagen coated plate was performed with and without the testing ‘compound dissolved in PBS buffer at pH 7.4 at the desired concentrations by the, addition of 50 μl each of the AGE-BSA diluted in PBS or in the solution of test compound at 37° C. for 4 hours.
Unbrowned BSA in PBS buffer with or without testing compound were added to the separate wells as the blanks. The un-cross-linked AGE-BSA was then removed by washing the wells three times with PBS-Tween buffer. The amount of AGE-BSA cross-linked to the tail tendon collagen-coated plate was then quantitated using a polyclonal antibody raised against AGE-RNase. After a one-hour incubation period, AGE antibody was removed by washing 4 times with PBS-Tween.
The bound AGE antibody was then detected with the addition of horseradish peroxidase-conjugated secondary antibody—goat anti-rabbit immunoglobulin and incubation for 30 minutes. […] The reaction was allowed for an additional 15 minutes and the absorbance was read at 410 nm in a Dynatech plate reader.

T1 sequence (P02769 25-607): as above
T1 sequence (P02454 152-1207 partner limits assumed): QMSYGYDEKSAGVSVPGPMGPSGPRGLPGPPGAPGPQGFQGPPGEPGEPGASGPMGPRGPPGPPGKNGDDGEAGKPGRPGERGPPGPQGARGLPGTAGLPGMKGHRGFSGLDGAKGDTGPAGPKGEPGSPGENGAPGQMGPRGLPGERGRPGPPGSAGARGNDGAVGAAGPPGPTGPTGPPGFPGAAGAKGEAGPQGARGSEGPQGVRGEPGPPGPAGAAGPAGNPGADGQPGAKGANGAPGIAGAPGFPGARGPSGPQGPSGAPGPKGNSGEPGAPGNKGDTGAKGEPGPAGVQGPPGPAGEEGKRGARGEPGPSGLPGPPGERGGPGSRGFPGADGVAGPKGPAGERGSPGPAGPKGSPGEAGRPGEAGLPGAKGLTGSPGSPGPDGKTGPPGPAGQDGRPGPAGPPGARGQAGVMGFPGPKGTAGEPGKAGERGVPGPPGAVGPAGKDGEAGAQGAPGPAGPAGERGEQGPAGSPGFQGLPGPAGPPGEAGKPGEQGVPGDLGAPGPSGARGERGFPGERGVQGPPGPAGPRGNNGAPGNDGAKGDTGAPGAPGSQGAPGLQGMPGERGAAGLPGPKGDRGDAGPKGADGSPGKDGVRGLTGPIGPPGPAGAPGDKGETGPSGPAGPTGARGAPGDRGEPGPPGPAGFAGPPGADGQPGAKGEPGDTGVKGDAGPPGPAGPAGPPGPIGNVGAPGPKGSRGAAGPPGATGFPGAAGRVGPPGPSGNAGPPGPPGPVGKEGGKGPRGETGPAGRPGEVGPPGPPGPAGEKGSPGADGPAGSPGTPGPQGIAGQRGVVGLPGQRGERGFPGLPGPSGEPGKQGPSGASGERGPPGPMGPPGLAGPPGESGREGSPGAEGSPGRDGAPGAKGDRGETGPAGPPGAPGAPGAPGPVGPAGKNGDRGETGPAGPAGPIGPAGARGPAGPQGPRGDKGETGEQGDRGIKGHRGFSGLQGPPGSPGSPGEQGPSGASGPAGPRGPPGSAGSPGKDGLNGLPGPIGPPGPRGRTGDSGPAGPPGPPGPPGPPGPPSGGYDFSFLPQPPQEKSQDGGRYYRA
T1 sequence (P02466 86-1125 partner limits assumed): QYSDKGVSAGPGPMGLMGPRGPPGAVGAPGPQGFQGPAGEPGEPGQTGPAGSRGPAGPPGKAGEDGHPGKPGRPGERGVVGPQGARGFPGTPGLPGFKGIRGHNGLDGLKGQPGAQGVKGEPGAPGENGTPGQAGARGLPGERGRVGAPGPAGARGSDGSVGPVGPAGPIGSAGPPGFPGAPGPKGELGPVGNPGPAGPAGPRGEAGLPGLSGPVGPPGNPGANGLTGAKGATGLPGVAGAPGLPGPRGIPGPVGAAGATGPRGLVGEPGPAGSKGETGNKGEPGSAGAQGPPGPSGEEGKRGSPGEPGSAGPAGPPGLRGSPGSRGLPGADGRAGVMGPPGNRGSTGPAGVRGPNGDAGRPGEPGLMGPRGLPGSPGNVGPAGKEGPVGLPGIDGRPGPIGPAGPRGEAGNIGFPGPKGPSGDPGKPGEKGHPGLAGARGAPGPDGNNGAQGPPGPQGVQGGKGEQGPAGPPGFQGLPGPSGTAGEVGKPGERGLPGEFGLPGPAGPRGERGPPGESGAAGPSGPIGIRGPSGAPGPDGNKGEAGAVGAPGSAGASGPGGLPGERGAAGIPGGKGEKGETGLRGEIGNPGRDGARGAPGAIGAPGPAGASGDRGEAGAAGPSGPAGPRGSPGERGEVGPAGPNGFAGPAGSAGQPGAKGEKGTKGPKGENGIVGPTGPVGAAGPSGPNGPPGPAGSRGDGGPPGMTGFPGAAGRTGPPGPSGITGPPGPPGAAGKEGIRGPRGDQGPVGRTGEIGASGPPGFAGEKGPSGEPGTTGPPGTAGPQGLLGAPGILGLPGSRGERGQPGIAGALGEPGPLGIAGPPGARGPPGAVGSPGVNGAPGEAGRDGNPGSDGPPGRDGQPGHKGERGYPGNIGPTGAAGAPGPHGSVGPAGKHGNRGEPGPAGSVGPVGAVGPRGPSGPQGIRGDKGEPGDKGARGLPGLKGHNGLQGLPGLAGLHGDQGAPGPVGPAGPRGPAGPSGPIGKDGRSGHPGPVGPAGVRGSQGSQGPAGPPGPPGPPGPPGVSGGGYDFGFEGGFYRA

Compound: COC(=O)C[n+]1csc(C)c1.[Br-] [3-(2-methoxy-2-oxoethyl)-5-methyl-thiazolium bromide]
- Breaking Anti-AGE ([1]; at 30 mM): 72%
- Breaking Anti-BSA ([1]; at 30 mM): 27%
- IC50 [2]: 3200 µM

Compound: Cc1sc[n+](CC(=O)c2ccccc2)c1C.[Br-] [3-(2-phenyl-2-oxoethyl)-4,5-dimethylthiazolium bromide]
- Breaking Anti-AGE ([1]; at 30 mM): 56%/ND (30)
- inhibition at 10000 µM [2]: 37%

Compound: COC(=O)c1ccc(NC(=O)C[n+]2csc(CCO)c2C)cc1O [3-(2-(4′-carbmethoxy-3′-hydroxyanilino)-2-oxoethyl]-4-methyl-5-(2′-hydroxyethyl)-thiazolium bromide]
- Breaking Anti-AGE ([1]; at 10 mM): 24%
- Breaking Anti-BSA ([1]; at 10 mM): 18%
- IC50 [2]: 1760 µM

Compound: COC(=O)C[n+]1csc(CCO)c1C [3-(2-methoxy-2-oxoethyl)-4-methyl-5-(2-hydroxyethyl)-thiazolium bromide]
- inhibition at 10000 µM [2]: 38%

Compound: Cc1c(CCOCc2c(Cl)cccc2Cl)sc[n+]1N.Cc1cc(C)c(S(=O)(=O)[O-])c(C)c1 [3-amino-4-methyl-5-(2(2′,6′-dichlorobenzyloxy)ethyl]-thiazolium mesitylenesulfonate]
- Breaking Anti-AGE ([1]; at 10 mM): 31%
- Breaking Anti-BSA ([1]; at 10 mM): 54%
- Relative Cross-link Inhibition ([2]; 3 mM): 26.5% (3 mm)

Compound: O=C(O)C[n+]1csc2ccccc21.[Br-] [3-(carboxymethyl)-benzothiazolium bromide]
- Breaking Anti-AGE ([1]; at 30 mM): 63.7%
- Breaking Anti-BSA ([1]; at 30 mM): 17.9%
- inhibition at 10000 µM [2]: 16%

Compound: Cc1c(CCO)sc[n+]1Cc1ccccc1[N+](=O)[O-].[Br-] [3-(2′-nitrobenzyl)-4-methyl-5-(2′-hydroxyethyl)-thiazolium bromide]
- Breaking Anti-AGE ([1]; at 10 mM): 11%
- Breaking Anti-BSA ([1]; at 10 mM): 13%

Compound: Nc1ccc2c(c1)sc(N)[n+]2CC(=O)c1ccc(F)cc1.[Br-] [2,6-diamino-3 (2-(4′-fluorophenyl-2-oxoethyl]benzothiazolium bromide]
- Breaking Anti-AGE ([1]; at 10 mM): 24%
- Breaking Anti-BSA ([1]; at 10 mM): 40%

Compound: C[n+]1ccn(CC(=O)c2cc(C(C)(C)C)c(O)c(C(C)(C)C)c2)c1 [1-methyl-3-(2-(3′,5′-di-tert-butyl-4′-hydroxyphenyl)-2-oxoethyl]-imidazolium bromide]
- Breaking Anti-AGE ([1]; at 10 mM): 56%
- Breaking Anti-BSA ([1]; at 10 mM): 38%
- IC50 [2]: 4500 µM

Compound: Cc1c[n+](CC(=O)c2ccccc2)cs1 [3-(2-phenyl-2-oxoethyl)-5-methyl-thiazolium bromide]
- IC50 [2]: 12600 µM

Compound: Cc1csc[n+]1CC(N)=O.[Br-] [3-(2-amino-2-oxoethyl)-4-methyl-thiazolium bromide]
- Breaking Anti-AGE ([1]; at 30 mM): 89%
- Breaking Anti-BSA ([1]; at 30 mM): 44%
- IC50 [2]: 700 µM

Compound: NC(=O)C[n+]1ccsc1 [3-(2-amino-2-oxoethyl)-thiazolium bromide]
- IC50 [2]: 530 µM

Compound: Cc1csc[n+]1CC(=O)c1cc(C(C)(C)C)c(O)c(C(C)(C)C)c1.[Br-] [3-[2-(3′,5′-di-tert-butyl-4′-hydroxyphenyl)-2-oxoethyl]-4-methyl-thiazolium bromide]
- Breaking Anti-AGE ([1]; at 0.3 mM): 14%
- Breaking Anti-BSA ([1]; at 0.3 mM): 2%
- Relative Cross-link Inhibition ([2]; 0.3 mM): 24% @ 0.3 mM

Compound: Cc1cc(C)c(S(=O)(=O)[O-])c(C)c1.Nc1sc(-c2ccc3c(c2)OCCCO3)c[n+]1N [2,3-Diamino-5-(3′,4′-trimethylenedioxyphenyl)thiazolium mesitylene sulfonate]
- Breaking Anti-AGE ([1]; at 1 mM): 13%
- Breaking Anti-BSA ([1]; at 1 mM): 42%

Compound: CCCCN(CCCC)C(=O)C[n+]1csc(CCO)c1C.[Br-] [3-(2-Dibutylamino-2-oxoethyl]-4-methyl-5-(2′-hydroxyethyl)-thiazolium bromide]
- Breaking Anti-AGE ([1]; at 10 mM): 25%
- Breaking Anti-BSA ([1]; at 10 mM): 38%
- inhibition at 10000 µM [2]: 0.8%

Compound: Nc1ccc2c(c1)sc(N)[n+]2CC(=O)c1ccc(Br)cc1.[Br-] [2,6-diamino-3 (2-(4′-bromophenyl)-2-oxoethyl]benzothiazolium bromide]
- Breaking Anti-AGE ([1]; at 10 mM): 27%
- Breaking Anti-BSA ([1]; at 10 mM): 44%

Compound: COC(=O)C[n+]1ccsc1.[Br-] [3-(2-Methoxy-2-Oxoethyl)-Thiazolium Bromide]
- Breaking Anti-AGE ([1]; at 30 mM): 38%
- Breaking Anti-BSA ([1]; at 30 mM): 41%
- IC50 [2]: 250 µM

Compound: C=Cc1sc[n+](CC(=O)c2cc(C(C)(C)C)c(O)c(C(C)(C)C)c2)c1C [3-(2-(3′,5′-tert-butyl-4′-hydroxyphenyl)-2-oxoethyl)-4-methyl-5-vinyl-thiazolium bromide]
- Breaking Anti-AGE ([1]; at 0.3 mM): 32%
- Breaking Anti-BSA ([1]; at 0.3 mM): 50%
- IC50 (mM) Anti-BSA ([1]; detection with anti-BSA antibody): ND/0/60%

Compound: Cc1c(CCO)sc[n+]1Cc1ccccc1.[Cl-] [3-benzyl-5-(2-hydroxyethyl)-4-methyl thiazolium chloride]
- Breaking Anti-AGE ([1]; at 30 mM): 65%
- Breaking Anti-BSA ([1]; at 30 mM): 61%

Compound: O=C(C[n+]1ccsc1)c1ccc(Br)cc1.[Br-] [3-(2-(4^1-bromophenyl]-2-oxoethyl)-thiazolium bromide]
- Breaking Anti-AGE ([1]; at 30 mM): 76%
- Breaking Anti-BSA ([1]; at 30 mM): 25%

Compound: CC(=O)C[n+]1ccsc1.[Cl-] [3-(2-methyl-2-oxoethyl)thiazolium chloride]
- IC50 ([1]; IC50 (mM) Anti-AGE, detection with anti-AGE antibody): 0.83 mM
- IC50 ([1]; IC50 (mM) Anti-BSA, detection with anti-BSA antibody): 0.75 mM
- Breaking Anti-AGE ([1]; concentration not given): 56%
- Breaking Anti-BSA ([1]; concentration not given): 93%

Compound: Nc1sc2ccccc2[n+]1N [2,3-diaminio-benzothiazolium mesitylenesulfonate]
- Breaking Anti-AGE ([1]; at 30 mM): 87%
- Breaking Anti-BSA ([1]; at 30 mM): 54%

Compound: Cc1c(CCO)sc[n+]1Cc1c(Cl)cccc1Cl.[Cl-] [3-(2′,6′-dichlorobenzyl)-4-methyl-5-(2′-15 hydroxyethyl)-thiazolium chloride]
- Breaking Anti-AGE ([1]; at 10 mM): 6%
- Breaking Anti-BSA ([1]; at 10 mM): 27%

Compound: Cc1sc[n+](CC(=O)c2cc(C(C)(C)C)c(O)c(C(C)(C)C)c2)c1C [3-(2-(3′,5′-di-tert-butyl-4′-hydroxypheny].)-2-oxoethyl]-4,5-dimethyl-thiazolium bromide]
- IC50 [2]: 160 µM

Compound: CCCCCc1ccc(C(=O)C[n+]2csc(CCO)c2C)cc1.[Br-] [3-(2-(4′-n-pentylphenyl)-2-oxoethyl]-4-methyl-5-(2′-hydroxyethyl)-thiazolinium]
- Relative Cross-link Inhibition ([2]; 3 mM): 52% @ 3 mM

Compound: CC(C)(C)C(=O)C[n+]1ccsc1.[Br-] [3-(2-tert-butyl-2-oxoethyl)-thiazolium bromide]
- Breaking Anti-AGE ([1]; at 10 mM): 28%
- Breaking Anti-BSA ([1]; at 10 mM): 37%

Compound: COc1ccc(C(=O)C[n+]2c(N)sc3cc(N)ccc32)cc1.[Br-] [2,6-diamino-3 (2-(4′-methoxyphenyl)-2-oxoethyl]benzothiazolium bromide]
- Breaking Anti-AGE ([1]; at 10 mM): 29%
- Breaking Anti-BSA ([1]; at 10 mM): 35%

Compound: O=C(C[n+]1ccsc1)c1ccc2c(c1)OCCCO2.[Br-] [3-(2-(3′,4′-trimethylenedioxyphenyl)-2-oxoethyl]-thiazolium bromide]
- Breaking Anti-AGE ([1]; at 10 mM): 17%
- Breaking Anti-BSA ([1]; at 10 mM): 18%

Compound: COc1cccc(C[n+]2csc(CCO)c2C)c1.[Cl-] [3-(3′-methoxybenzyl)-4-methyl-5-(2′-hydroxyethyl)-thiazolium chloride]
- Breaking Anti-AGE ([1]; at 10 mM): 4% and 14%
- Breaking Anti-BSA ([1]; at 10 mM): 19% and 25%

Compound: Cc1c(CCO)sc[n+]1CC(=O)c1ccc(Br)cc1 [3-(2-(41-bromophenyl]-2-oxoethyl)-4-methyl-5-(2-hydroxyethyl)thiazolium bromide]
- IC50 [2]: 2950 µM

Compound: 3-(2-(3′-methoxyphenyl]-2-oxoethyl)-thiazolium bromide
- Breaking Anti-AGE ([1]; at 10 mM): 22%
- Breaking Anti-BSA ([1]; at 10 mM): 44%
